Data reported in publication PMC6017236, “Activation Profile Analysis of CruCA4, an α-Carbonic Anhydrase Involved in Skeleton Formation of the Mediterranean Red Coral, Corallium rubrum” (Molecules : A Journal of Synthetic Chemistry and Natural …, 2017).

What follows are compounds tested against T1, CruCA4 (Corallium rubrum, UniProt A0A1B0Y987) (assay: stopped-flow CO2 hydrase activation assay). Settings: activation constant (activator); CO2 1.7-17 mM substrate, pH 7.5, 25 °C, 15 min pre-incubation.
T1 construct: gene CA4
T1 sequence (A0A1B0Y987 entry or part of it): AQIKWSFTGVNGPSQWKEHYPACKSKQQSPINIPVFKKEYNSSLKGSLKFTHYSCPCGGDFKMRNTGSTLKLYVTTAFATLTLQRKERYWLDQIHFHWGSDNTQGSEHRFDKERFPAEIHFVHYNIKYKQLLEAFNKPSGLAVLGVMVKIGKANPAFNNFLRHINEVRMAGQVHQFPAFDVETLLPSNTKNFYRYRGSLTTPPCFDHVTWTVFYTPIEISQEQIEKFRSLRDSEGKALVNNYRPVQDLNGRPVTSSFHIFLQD
Type: biochemical
Excerpt: stopped-flow CO2 hydrase activation assay on CruCA4

Structure (SMILES)	KA (μM) * / CruCA4 ^b
N[C@@H](Cc1c[nH]c2ccccc12)C(=O)O [compound 7, L-Trp]	9.48 µM
NCCN1CCOCC1 [compound 18, 4-(2-Aminoethyl)-morpholine]	0.15 µM
Nc1ccc(C[C@H](N)C(=O)O)cc1 [compound 11, 4-H2N-L-Phe]	0.074 µM
N[C@@H](Cc1cnc[nH]1)C(=O)O [compound 1, L-His]	36.9 µM
N[C@H](Cc1ccccc1)C(=O)O [compound 4, D-Phe]	1.01 µM
N[C@H](Cc1c[nH]cn1)C(=O)O [compound 2, D-His]	0.098 µM
NCCN1CCNCC1 [compound 17, 1-(2-Aminoethyl)-piperazine]	0.004 µM

Results, then the compound that gave them:

KA (μM) * / CruCA4 ^b	Structure (SMILES)
8.35 µM	N[C@H](Cc1c[nH]c2ccccc12)C(=O)O [compound 8, D-Trp]
0.41 µM	NCc1ccccn1 [compound 15, 2-Pyridyl-methylamine]
13.7 µM	N[C@@H](Cc1ccc(O)c(O)c1)C(=O)O [compound 5, L-DOPA]
0.93 µM	N[C@H](Cc1ccc(O)c(O)c1)C(=O)O [compound 6, D-DOPA]
